Laboratory results published in the supplement of paper PMC10878532, “Sperm Toolbox—A selection of small molecules to study human spermatozoa” (PLOS ONE, 2024).

Columns and labels:
human spermatozoa [1] = test: progressively motile sperm, percent change vs DMSO (capacitating); higher = more of the measured sperm population than DMSO, for viability, fewer PI-positive (dead) cells than DMSO; conditions: incubation time: 30min incubation
human spermatozoa [2] = test: progressively motile sperm, percent change vs DMSO (non-capacitating); higher = more of the measured sperm population than DMSO, for viability, fewer PI-positive (dead) cells than DMSO; extreme values may be limits of the assay
human spermatozoa [3] = test: viability fold change, 1 - (PI-positive fraction / DMSO median); higher = more of the measured sperm population than DMSO, for viability, fewer PI-positive (dead) cells than DMSO; conditions: incubation time: 3h, non-capacitating
human spermatozoa [4] = test: acrosome-reacted (PNA+) sperm after agonist cocktail, percent change vs DMSO (capacitating); higher = more of the measured sperm population than DMSO, for viability, fewer PI-positive (dead) cells than DMSO; conditions: incubation time: 3h, capacitating + agonist cocktail 1h
HepG2 = HepG2 toxicity (resazurin), effect normalised to DMSO (DMSO = 0); higher = more features changed / larger toxic effect; conditions: incubation time: 70h incubation
HeLa [5] = test: HeLa toxicity: nuclei-count effect normalised to DMSO (DMSO = 0); higher = more features changed / larger toxic effect; conditions: incubation time: 24h incubation
HeLa [6] = test: Cell Painting percent induction (share of features beyond 2 z-scores vs DMSO); higher = more features changed / larger toxic effect; extreme values may be limits of the assay; conditions: incubation time: 24h incubation
human spermatozoa [7] = test: change in acrosome-reacted (PNA+) sperm vs DMSO, no agonist (capacitating); higher = more of the measured sperm population than DMSO, for viability, fewer PI-positive (dead) cells than DMSO; conditions: incubation time: 3h
human spermatozoa [8] = test: total motile sperm, percent change vs DMSO (non-capacitating); higher = more of the measured sperm population than DMSO, for viability, fewer PI-positive (dead) cells than DMSO
human spermatozoa [9] = test: hyperactivated motile sperm, percent change vs DMSO (capacitating); higher = more of the measured sperm population than DMSO, for viability, fewer PI-positive (dead) cells than DMSO; conditions: incubation time: 30min incubation
[10] = incubation time: 10min incubation, 9.99 µM
[11] = incubation time: 10min incubation, 29.9 µM
[12] = incubation time: 3h incubation, 9.99 µM
[13] = incubation time: 3h incubation, 29.9 µM
[14] = incubation time: 6h incubation, 9.99 µM
[15] = incubation time: 6h incubation, 29.9 µM
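For progressively motile sperm, percent change vs DMSO (non-capacitating) in this document: pooled live human sperm from at least 3 donors, tracked by automated microscopy in 0.5 s time-lapse movies, compounds at 10 and 30 µM, versus median of 16 DMSO wells per plate.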
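For total motile sperm, percent change vs DMSO (non-capacitating) in this document: sperm pooled from at least 3 donors, tracked in 0.5 s time-lapse movies by automated microscopy after 10 min, 3 h or 6 h with compound at 10 or 30 µM.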

Row | SMILES | progressively motile sperm (human spermatozoa [1]; 9.99 µM) | progressively motile sperm (human spermatozoa [1]; 29.9 µM) | progressively motile sperm (human spermatozoa [2]; [10]) | progressively motile sperm (human spermatozoa [2]; [11]) | progressively motile sperm (human spermatozoa [2]; [12]) | progressively motile sperm (human spermatozoa [2]; [13]) | progressively motile sperm (human spermatozoa [2]; [14]) | progressively motile sperm (human spermatozoa [2]; [15]) | viability fold change (human spermatozoa [3]; 9.99 µM) | viability fold change (human spermatozoa [3]; 29.9 µM) | acrosome-reacted (human spermatozoa [4]; 9.99 µM) | acrosome-reacted (human spermatozoa [4]; 29.9 µM) | HepG2 toxicity (HepG2; 10 µM) | HepG2 toxicity (HepG2; 30 µM) | HeLa toxicity: nuclei-count effect normalised (HeLa [5]; 9.99 µM) | HeLa toxicity: nuclei-count effect normalised (HeLa [5]; 29.9 µM) | Cell Painting percent induction (HeLa [6]; 9.99 µM) | Cell Painting percent induction (HeLa [6]; 29.9 µM) | change in acrosome-reacted (human spermatozoa [7]; 9.99 µM) | change in acrosome-reacted (human spermatozoa [7]; 29.9 µM) | total motile sperm (human spermatozoa [8]; [10]) | total motile sperm (human spermatozoa [8]; [11]) | total motile sperm (human spermatozoa [8]; [12]) | total motile sperm (human spermatozoa [8]; [13]) | total motile sperm (human spermatozoa [8]; [14]) | total motile sperm (human spermatozoa [8]; [15]) | hyperactivated motile sperm (human spermatozoa [9]; 9.99 µM) | hyperactivated motile sperm (human spermatozoa [9]; 29.9 µM)
1 | Oc1c(Cl)cc(Cl)c(Cl)c1Cc1c(O)c(Cl)cc(Cl)c1Cl [Hexachlorophene] | -5.64% | -8.81% | -23.5% | -48.4% | -39.7% | -63.9% | -37.2% | -61.3% | -0.213 | 0.344 | -9.07% | -13.3% | 56.3% | 74.5% | 14% | 33.9% | 0% | 0.18% | 0.634% | 0.899% | -1.87% | -5.83% | -1.02% | -8.13% | -1.96% | -7.29% | -24.4% | -58.1%
2 | CC(C)Cn1c(=O)n(C)c(=O)c2[nH]cnc21 [IBMX] | 12.9% | 19.2% | 18.9% | 35.7% | 40.5% | 53.9% | 53.1% | 61.2% | -0.424 | -0.627 | 36.8% | 69.3% | 7.96% | -0.365% | 3.07% | -2.27% | 0% | 0.036% | 0.651% | 1.04% | -1.18% | 1.45% | -5.33% | -3.42% | -1.15% | -4.45% | 67.7% | 147%
3 | CC(C)Cn1cnc2c(N)nc3ccccc3c21 [Imiquimod] | 7.22% | 11.8% | 24.4% | 32.7% | 49.3% | 51.2% | 58.8% | 51.3% | -0.324 | -0.489 | 34.9% | 56.5% | 10.2% | -1.53% | 6.28% | 5.01% | 0.612% | 0% | 1.03% | 1.32% | -0.548% | 1.37% | -4.33% | -4.6% | -4.54% | -9.83% | 65.2% | 131%
4 | Cc1sc2c(c1C)C(c1ccc(Cl)cc1)=N[C@@H](CC(=O)OC(C)(C)C)c1nnc(C)n1-2 [JQ1] | 15.8% | 27.5% | 13.6% | 21.5% | 27.4% | 52.8% | 48% | 55.5% | -0.127 | -0.0779 | 17.2% | 40.2% | 56.3% |  | 16.3% | 31.3% | 0.684% | 1.87% | 0.641% | 1.24% | 4.25% | 1.65% | -3.02% | 0.304% | -0.955% | -3.78% | 18.5% | -14.4%
5 | COc1cc(SC)ccc1C(=O)N1CCC(Cc2ccccc2)CC1 [JX 401] | 4.17% | 3.66% | 2.94% | -4.03% | 10.9% | 7.53% | 13.8% | 14.6% | -1.82 | -1.65 | 15% | 16.2% | 9.25% | -2.23% | 4.01% | 2.67% | 0.036% | 0% | 0.294% | 1.59% | 3.2% | -0.475% | 1.22% | -0.09% | 0.862% | -0.188% | 19.2% | 24.9%
